US12162840B2, “Herbicidal compositions” (SYNGENTA PARTICIPATIONS AG, priority 2018, dated 2024)

Experiments:
Assay type in all cases: in vivo
Solanum nigrum (SOLNI) = test: B1 Post-emergence efficacy Test 1; settings: post-emergence application, 1000 g/ha, evaluated after 13 days
Protocol: (§1) Seeds of a variety of test species are sown in standard soil in pots:—Solanum nigrum (SOLNI), Amaranthus retoflexus (AMARE), Setaria faberi (SETFA), Alopecurus myosuroides (ALOMY), Echinochloa crus-galli (ECHCG), Ipomoea hederacea (IPOHE), Lolium perenne (LOLPE). After 8 days cultivation (post-emergence) under controlled conditions in a glasshouse (at 24/16° C., day/night; 14 hours light; 65% humidity), the plants are sprayed with an aqueous spray solution derived from the formulation of the technical active ingredient in acetone/water (50:50) solution containing 0.5% Tween 20 (polyoxyethylene sorbitan monolaurate, CAS RN 9005-64-5). Compounds are applied at 1000 g/ha. The test plants are then grown in a glasshouse under controlled conditions in a glasshouse (at 24/16° C., day/night; 14 hours light; 65% humidity) and watered twice daily. After 13 days, the test is evaluated for the percentage damage caused to the plant. The biological activities are assessed on a five point scale (5=80-100%; 4=60-79%; 3=40-59%; 2=20-39%; 1=0-19%). A blank value in the table is indicative that the compound was not tested on that species.

[1] = tested on: Amaranthus retoflexus (AMARE); test: B1 Post-emergence efficacy Test 1; settings: post-emergence application, 1000 g/ha, evaluated after 13 days
Protocol: as §1

[2] = tested on: Ipomoea hederacea (IPOHE); test: B1 Post-emergence efficacy Test 1; settings: post-emergence application, 1000 g/ha, evaluated after 13 days
Protocol: as §1

[3] = tested on: Echinochloa crus-galli (ECHCG); test: B1 Post-emergence efficacy Test 1; settings: post-emergence application, 1000 g/ha, evaluated after 13 days
Protocol: as §1

Lolium perenne (LOLPE) = test: B1 Post-emergence efficacy Test 1; settings: post-emergence application, 1000 g/ha, evaluated after 13 days
Protocol: as §1

Setaria faberi (SETFA) = test: B1 Post-emergence efficacy Test 1; settings: post-emergence application, 1000 g/ha, evaluated after 13 days
Protocol: as §1

[4] = tested on: warm season plant species; test: B2 Post-emergence efficacy Test 2, warm season plant species; settings: 15 days after application, 0-100 scale, 0=no damage, 100=total kill; for Herbicidal activity, ABUTH: Abutilon theophrasti; for Herbicidal activity, AMARE: Amaranthus retroflexus; for Herbicidal activity, BIDPI: Bidens pilosa; for Herbicidal activity, BRAPL: Brachiaria plantaginea; for Herbicidal activity, DIGSA: Digitaria sanguinalis; for Herbicidal activity, ECHCG: Echinochloa crus galli; for Herbicidal activity, ELEIN: Eleisine indica; for Herbicidal activity, EPHHL: Euphorbia hetrophylla; for Herbicidal activity, GLXMA: Glycine max; for Herbicidal activity, IPOHE: Ipomoea hederacea; for Herbicidal activity, ORYSA: Orysa sativa; for Herbicidal activity, PANMI: Panicum miliaceum; for Herbicidal activity, SETFA: Setaria faberi; for Herbicidal activity, SIDSP: Sida spinosa; for Herbicidal activity, SORVU: Sorghum bicolour; for Herbicidal activity, XANST: Xanthium strumarium; for Herbicidal activity, ZEAMX: Zea mays
Protocol: Seeds of a variety of test species (see Table B1) were sown in standard soil in pots. After cultivation for 12 days (post-emergence) under controlled conditions in a glasshouse (at 24/18° C. or 20/16° C., at day/night; 16 hours light; 65% humidity), the plants were sprayed with an aqueous spray solution derived from the formulation of the technical active ingredient dissolved in IF50 (see Table B2 for composition) and adjuvant (Genapol XO80) was added to the spray solution at a rate of 0.2% v/v. [table] [table] After application, the test plants were grown in a glasshouse under controlled conditions (as above) and watered twice daily. Herbicidal activity was evaluated 15 days after application on a 0-100 scale. The results, where 0=no damage to test plant and 100=total kill of test plant are shown below in Tables 6 to 9.

Cc1nn(C)c(=O)c(-c2c(F)ccc(Cl)c2CCc2ccc(C#N)cc2)c1O [Compound 1.024]
90: Herbicidal activity, ABUTH ([4]; 15 g/Ha) | Herbicidal activity, ABUTH ([4]; 30 g/Ha) | Herbicidal activity, AMARE ([4]; 30 g/Ha) | Herbicidal activity, AMARE ([4]; 60 g/Ha) | Herbicidal activity, BIDPI ([4]; 500 g/Ha) | Herbicidal activity, BRAPL ([4]; 500 g/Ha) | Herbicidal activity, DIGSA ([4]; 250 g/Ha) | Herbicidal activity, DIGSA ([4]; 500 g/Ha) | Herbicidal activity, ECHCG ([4]; 125 g/Ha) | Herbicidal activity, ECHCG ([4]; 250 g/Ha) | Herbicidal activity, EPHHL ([4]; 30 g/Ha) | Herbicidal activity, EPHHL ([4]; 60 g/Ha) | Herbicidal activity, EPHHL ([4]; 125 g/Ha) | Herbicidal activity, GLXMA ([4]; 60 g/Ha) | Herbicidal activity, GLXMA ([4]; 125 g/Ha) | Herbicidal activity, PANMI ([4]; 125 g/Ha) | Herbicidal activity, PANMI ([4]; 250 g/Ha) | Herbicidal activity, SETFA ([4]; 125 g/Ha) | Herbicidal activity, SETFA ([4]; 250 g/Ha) | Herbicidal activity, SIDSP ([4]; 30 g/Ha) | Herbicidal activity, SIDSP ([4]; 60 g/Ha) | Herbicidal activity, SORVU ([4]; 250 g/Ha)
0: Herbicidal activity, DIGSA ([4]; 15 g/Ha) | Herbicidal activity, ELEIN ([4]; 15 g/Ha) | Herbicidal activity, ORYSA ([4]; 15 g/Ha) | Herbicidal activity, ORYSA ([4]; 30 g/Ha) | Herbicidal activity, ORYSA ([4]; 60 g/Ha) | Herbicidal activity, ORYSA ([4]; 125 g/Ha) | Herbicidal activity, PANMI ([4]; 15 g/Ha) | Herbicidal activity, SORVU ([4]; 15 g/Ha) | Herbicidal activity, ZEAMX ([4]; 15 g/Ha)
40: Herbicidal activity, DIGSA ([4]; 60 g/Ha) | Herbicidal activity, ELEIN ([4]; 30 g/Ha) | Herbicidal activity, ELEIN ([4]; 60 g/Ha) | Herbicidal activity, ORYSA ([4]; 500 g/Ha) | Herbicidal activity, ZEAMX ([4]; 125 g/Ha)
20: Herbicidal activity, DIGSA ([4]; 30 g/Ha) | Herbicidal activity, ORYSA ([4]; 250 g/Ha) | Herbicidal activity, SETFA ([4]; 15 g/Ha) | Herbicidal activity, ZEAMX ([4]; 60 g/Ha)
30: Herbicidal activity, BRAPL ([4]; 15 g/Ha)
60: Herbicidal activity, BRAPL ([4]; 30 g/Ha) | Herbicidal activity, ELEIN ([4]; 125 g/Ha)
5 (5=80-100%): percentage damage caused to the plant, five point scale, SOLNI (Solanum nigrum (SOLNI)) | percentage damage caused to the plant, five point scale, AMARE [1] | percentage damage caused to the plant, five point scale, IPOHE [2] | percentage damage caused to the plant, five point scale, ECHCG [3] | percentage damage caused to the plant, five point scale, LOLPE (Lolium perenne (LOLPE)) | percentage damage caused to the plant, five point scale, SETFA (Setaria faberi (SETFA))
100: Herbicidal activity, ABUTH ([4]; 60 g/Ha) | Herbicidal activity, ABUTH ([4]; 125 g/Ha) | Herbicidal activity, ABUTH ([4]; 250 g/Ha) | Herbicidal activity, ABUTH ([4]; 500 g/Ha) | Herbicidal activity, AMARE ([4]; 125 g/Ha) | Herbicidal activity, AMARE ([4]; 250 g/Ha) | Herbicidal activity, AMARE ([4]; 500 g/Ha) | Herbicidal activity, ECHCG ([4]; 500 g/Ha) | Herbicidal activity, EPHHL ([4]; 250 g/Ha) | Herbicidal activity, EPHHL ([4]; 500 g/Ha) | Herbicidal activity, GLXMA ([4]; 250 g/Ha) | Herbicidal activity, GLXMA ([4]; 500 g/Ha) | Herbicidal activity, IPOHE ([4]; 30 g/Ha) | Herbicidal activity, IPOHE ([4]; 60 g/Ha) | Herbicidal activity, IPOHE ([4]; 125 g/Ha) | Herbicidal activity, IPOHE ([4]; 250 g/Ha) | Herbicidal activity, IPOHE ([4]; 500 g/Ha) | Herbicidal activity, PANMI ([4]; 500 g/Ha) | Herbicidal activity, SETFA ([4]; 500 g/Ha) | Herbicidal activity, SIDSP ([4]; 125 g/Ha) | Herbicidal activity, SIDSP ([4]; 250 g/Ha) | Herbicidal activity, SIDSP ([4]; 500 g/Ha) | Herbicidal activity, SORVU ([4]; 500 g/Ha) | Herbicidal activity, XANST ([4]; 500 g/Ha) | Herbicidal activity, ZEAMX ([4]; 500 g/Ha)
10: Herbicidal activity, SORVU ([4]; 30 g/Ha) | Herbicidal activity, ZEAMX ([4]; 30 g/Ha)
80: Herbicidal activity, AMARE ([4]; 15 g/Ha) | Herbicidal activity, BIDPI ([4]; 15 g/Ha) | Herbicidal activity, BIDPI ([4]; 30 g/Ha) | Herbicidal activity, BIDPI ([4]; 60 g/Ha) | Herbicidal activity, BIDPI ([4]; 125 g/Ha) | Herbicidal activity, BIDPI ([4]; 250 g/Ha) | Herbicidal activity, DIGSA ([4]; 125 g/Ha) | Herbicidal activity, ECHCG ([4]; 30 g/Ha) | Herbicidal activity, ECHCG ([4]; 60 g/Ha) | Herbicidal activity, ELEIN ([4]; 250 g/Ha) | Herbicidal activity, ELEIN ([4]; 500 g/Ha) | Herbicidal activity, GLXMA ([4]; 30 g/Ha) | Herbicidal activity, PANMI ([4]; 60 g/Ha) | Herbicidal activity, SETFA ([4]; 60 g/Ha) | Herbicidal activity, SIDSP ([4]; 15 g/Ha) | Herbicidal activity, SORVU ([4]; 125 g/Ha) | Herbicidal activity, XANST ([4]; 60 g/Ha) | Herbicidal activity, XANST ([4]; 125 g/Ha)
70: Herbicidal activity, BRAPL ([4]; 60 g/Ha) | Herbicidal activity, BRAPL ([4]; 125 g/Ha) | Herbicidal activity, BRAPL ([4]; 250 g/Ha) | Herbicidal activity, ECHCG ([4]; 15 g/Ha) | Herbicidal activity, EPHHL ([4]; 15 g/Ha) | Herbicidal activity, GLXMA ([4]; 15 g/Ha) | Herbicidal activity, PANMI ([4]; 30 g/Ha) | Herbicidal activity, SETFA ([4]; 30 g/Ha) | Herbicidal activity, SORVU ([4]; 60 g/Ha) | Herbicidal activity, ZEAMX ([4]; 250 g/Ha)
